Experimental data taken from patent US9000159B2 (Glenmark Pharmaceuticals, S.A., priority 2009, dated 2015).
pIC50: −log10 of the molar value.

Biological target: T1, Human TRPA1 (Homo sapiens, UniProt O75762)
T1 construct: expressed in transfected cells; host or cells: CHO cells
Assay: 45Calcium uptake assay: inhibition of AITC induced cellular uptake of radioactive calcium
Type: cell-based
Settings: AITC (30 μM) induced 45Ca uptake, Human TRPA1 expressing CHO cells; for inhibition at 1 µM: 1.0 μM test compound, read-out: Percentage inhibition at 1.0 μM; for inhibition at 10 µM: 10.0 μM test compound, read-out: Percentage inhibition at 10.0 μM; for pIC50: read-out: Human IC50 value (range)
Excerpt: The illustrative examples of the present invention are screened for TRPA1 activity according to a modified procedure described in (a) Tóth, A. et al., Life Sciences, 2003, 73, 487-498. (b) McNamara C, R. et al., Proc. Natl. Acad. Sci. U.S.A., 2007, 104, 13525-13530. The screening of the compounds can be carried out by other methods and procedures known to persons skilled in the art.
Screening for TRPA1 Antagonist Using the ^45Calcium Uptake Assay
The inhibition of TRPA1 receptor activation was measured as inhibition of allyl isothiocyanate (AITC) induced cellular uptake of radioactive calcium. Test compounds were dissolved in DMSO to prepare 10 mM stock solution and then diluted using plain medium with 0.1% BSA and 1.8 mM CaCl2 to get desired concentration. Final concentration of DMSO in the reaction was 0.5% (v/v). Human TRPA1 expressing CHO cells were grown in F-12 DMEM medium with 10% FBS, 1% penicillin-streptomycin solution, 400 μg/ml of G-418. Cells were seeded 24 h prior to the assay in 96 well plates so as to get ˜50,000 cells per well on the day of experiment. Cells were treated with test compounds for 10 min followed by addition of AITC at a final concentration of 30 μM and 5 μCi/ml ^45Ca^+2 for 3 min. Cells were washed and lysed using buffer containing 1% Triton X-100, 0.1% deoxycholate and 0.1% SDS. Radioactivity in the lysate was measured in Packard Top count after addition of liquid scintillant. Concentration response curves were plotted as a % of maximal response obtained in the absence of test antagonist. IC50 value was calculated from concentration response curve by nonlinear regression analysis using GraphPad PRISM software.

T1 sequence (O75762 whole entry): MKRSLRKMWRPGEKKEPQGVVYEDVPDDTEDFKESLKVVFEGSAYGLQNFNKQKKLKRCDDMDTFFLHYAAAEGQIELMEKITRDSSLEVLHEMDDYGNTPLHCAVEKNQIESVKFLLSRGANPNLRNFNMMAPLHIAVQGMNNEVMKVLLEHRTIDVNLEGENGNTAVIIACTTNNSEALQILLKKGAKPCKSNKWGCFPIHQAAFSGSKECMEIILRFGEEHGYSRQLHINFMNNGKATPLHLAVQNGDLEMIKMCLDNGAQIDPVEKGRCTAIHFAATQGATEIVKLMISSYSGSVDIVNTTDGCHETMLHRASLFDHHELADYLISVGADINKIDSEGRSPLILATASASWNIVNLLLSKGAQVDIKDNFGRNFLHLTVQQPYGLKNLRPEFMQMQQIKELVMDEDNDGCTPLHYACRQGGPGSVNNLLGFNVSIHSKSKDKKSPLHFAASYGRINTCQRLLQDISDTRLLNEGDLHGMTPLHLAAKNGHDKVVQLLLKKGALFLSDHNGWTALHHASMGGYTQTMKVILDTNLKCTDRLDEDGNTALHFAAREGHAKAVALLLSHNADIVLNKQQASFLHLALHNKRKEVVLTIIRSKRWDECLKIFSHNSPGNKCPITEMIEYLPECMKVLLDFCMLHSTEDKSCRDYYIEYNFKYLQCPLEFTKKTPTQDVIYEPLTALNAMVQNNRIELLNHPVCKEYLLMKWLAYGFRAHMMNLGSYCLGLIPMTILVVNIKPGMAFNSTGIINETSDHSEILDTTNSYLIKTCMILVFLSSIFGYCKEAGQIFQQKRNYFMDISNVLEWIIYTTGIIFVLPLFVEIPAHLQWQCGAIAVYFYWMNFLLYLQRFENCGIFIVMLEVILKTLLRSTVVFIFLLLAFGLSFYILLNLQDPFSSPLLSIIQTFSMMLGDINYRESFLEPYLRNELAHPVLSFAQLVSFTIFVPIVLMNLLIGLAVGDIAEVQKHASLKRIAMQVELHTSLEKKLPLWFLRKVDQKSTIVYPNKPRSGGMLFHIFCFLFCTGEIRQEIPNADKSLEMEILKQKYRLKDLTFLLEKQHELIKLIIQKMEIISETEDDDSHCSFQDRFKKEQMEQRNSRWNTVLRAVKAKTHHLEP

Structure (SMILES): Cn1c(=O)c2c(cnn2CC(=O)Nc2nc(-c3cc(F)c(OCC4CCC4)c(F)c3)cs2)n(C)c1=O [Example 81, N-{4-[4-(Cyclobutylmethoxy)-3,5-difluorophenyl]-1,3-thiazol-2-yl}-2-(4,6-dimethyl-5,7-dioxo-4,5,6,7-tetrahydro-1H-pyrazolo[4,3-d]pyrimidin-1-yl)acetamide]
- inhibition at 1 µM: 94%
- inhibition at 10 µM: 100%
- pIC50: > 7.30

Structure (SMILES): Cc1cc2c(c(=O)n(C)c(=O)n2C)n1CC(=O)Nc1nc(-c2ccc(F)c(C(F)(F)F)c2F)cs1 [Example 25]
- inhibition at 1 µM: 68.3%
- inhibition at 10 µM: 94.8%

Structure (SMILES): Cn1c(=O)c2c(ccn2CC(=O)Nc2nc(-c3ccc(Cl)c(C(F)(F)F)c3)cs2)n(C)c1=O [Example 4, 2-(1,3-Dimethyl-2,4-dioxo-1,2,3,4-tetrahydro-5H-pyrrolo[3,2-d]pyrimidin-5-yl)-N-{4-[4-chloro-3-(trifluoromethyl)phenyl]-1,3-thiazol-2-yl}acetamide]
- inhibition at 1 µM: 34.4%
- inhibition at 10 µM: 89.8%

Structure (SMILES): Cn1c(=O)c2c(CC(=O)Nc3nc(-c4ccc(F)c(C(F)(F)F)c4F)cs3)cn(C)c2n(C)c1=O [Example 43, N-{4-[2,4-Difluoro-3-(trifluoromethyl)phenyl]-1,3-thiazol-2-yl}-2-(1,3,7-trimethyl-2,4-dioxo-2,3,4,7-tetrahydro-1H-pyrrolo[2,3-d]pyrimidin-5-yl)acetamide]
- inhibition at 1 µM: 30.1%
- inhibition at 10 µM: 41.6%

Structure (SMILES): Cn1c(=O)c2c(CC(=O)Nc3nc(-c4ccc(C(F)(F)F)c(F)c4)cs3)cn(C)c2n(C)c1=O [Example 41, N-{4-[3-Fluoro-4-(trifluoromethyl)phenyl]-1,3-thiazol-2-yl}-2-(1,3,7-trimethyl-2,4-dioxo-2,3,4,7-tetrahydro-1H-pyrrolo[2,3-d]pyrimidin-5-yl)acetamide]
- inhibition at 1 µM: 38%
- inhibition at 10 µM: 86.5%

Structure (SMILES): Cc1cn(CC(=O)Nc2nc(-c3cc(F)c(OCC(C)(C)C)c(F)c3)cs2)c2c(=O)n(C)c(=O)n(C)c12 [Example 34, N-{4-[3,5-Difluoro-4-(2,2-dimethylpropoxy)phenyl]-1,3-thiazol-2-yl}-2-(1,3,7-trimethyl-2,4-dioxo-1,2,3,4-tetrahydro-5H-pyrrolo[3,2-d]pyrimidin-5-yl)acetamide]
- inhibition at 1 µM: 88.8%
- inhibition at 10 µM: 97%
- pIC50: < 7.00

Structure (SMILES): Cn1c(=O)c2c(ccn2CC(=O)Nc2nc(-c3ccc(C(F)(F)F)c(F)c3)cs2)n(C)c1=O [Example 3, 2-(1,3-Dimethyl-2,4-dioxo-1,2,3,4-tetrahydro-5H-pyrrolo[3,2-d]pyrimidin-5-yl)-N-{4-[3-fluoro-4-(trifluoromethyl)phenyl]-1,3-thiazol-2-yl}acetamide]
- inhibition at 1 µM: 94.4%
- inhibition at 10 µM: 98.8%
- pIC50: > 7.30

Structure (SMILES): CC(C)Cc1ccc(-c2csc(NC(=O)Cc3c4c(=O)n(C)c(=O)n(C)c4nn3C)n2)cc1 [Example 45, N-[4-(4-Isobutylphenyl)-1,3-thiazol-2-yl]-2-(2,5,7-trimethyl-4,6-dioxo-4,5,6,7-tetrahydro-2H-pyrazolo[3,4-d]pyrimidin-3-yl)acetamide]
- inhibition at 1 µM: 93.5%
- inhibition at 10 µM: 98.9%
- pIC50: 7.00 to 7.30

Structure (SMILES): Cn1c(=O)c2c(cnn2CC(=O)Nc2cc(-c3ccc(Br)cc3)on2)n(C)c1=O [Example 84, N-[5-(4-Bromophenyl)isoxazol-3-yl]-2-(4,6-dimethyl-5,7-dioxo-4,5,6,7,-tetrahydro-1H-pyrazolo[4,3-d]pyrimidin-1-yl)acetamide]
- inhibition at 1 µM: 17.2%
- inhibition at 10 µM: 83.9%

Structure (SMILES): Cn1c(=O)c2c(cnn2CC(=O)Nc2nc(-c3ccc(Cl)cc3)cs2)n(C)c1=O [Example 67, N-[4-(4-Chlorophenyl)-1,3-thiazol-2-yl]-2-(4,6-dimethyl-5,7-dioxo-4,5,6,7-tetrahydro-1H-pyrazolo[4,3-d]pyrimidin-1-yl)acetamide]
- inhibition at 1 µM: 57.6%
- inhibition at 10 µM: 98.4%

Structure (SMILES): Cc1cc2c(c(=O)n(C)c(=O)n2C)n1CC(=O)Nc1nc(-c2ccc(OCC(C)(C)C)c(Cl)c2)cs1 [Example 32, N-{4-[3-Chloro-4-(2,2-dimethylpropoxy)phenyl]-1,3-thiazol-2-yl}-2-(1,3,6-trimethyl-2,4-dioxo-1,2,3,4-tetrahydro-5H-pyrrolo[3,2-d]pyrimidin-5-yl)acetamide]
- inhibition at 1 µM: 92.8%
- inhibition at 10 µM: 96.3%
- pIC50: > 7.30

Structure (SMILES): Cn1nc2c(c1CC(=O)Nc1nc(-c3cc(F)cc(C(F)(F)F)c3)cs1)c(=O)n(C)c(=O)n2C [Example 58, N-{4-[3-Fluoro-5-(trifluoromethyl)phenyl]-1,3-thiazol-2-yl}-2-(2,5,7-trimethyl-4,6-dioxo-4,5,6,7-tetrahydro-2H-pyrazolo[3,4-d]pyrimidin-3-yl)acetamide]
- inhibition at 1 µM: 94.6%
- inhibition at 10 µM: 99.2%
- pIC50: > 7.30

Structure (SMILES): Cc1nn(CC(=O)Nc2nc(-c3cc(F)c(OCC(C)(C)C)c(F)c3)cs2)c2c(=O)n(C)c(=O)n(C)c12 [Example 82, N-[4-(3,5-Difluoro-4-(2,2-dimethylpropoxy)phenyl)-1,3-thiazol-2-yl]-2-(3,4,6-trimethyl-5,7-dioxo-4,5,6,7-tetrahydro-1H-pyrazolo[4,3-d]pyrimidin-1-yl)acetamide]
- inhibition at 1 µM: 92.8%
- inhibition at 10 µM: 99%
- pIC50: 7.00 to 7.30

Structure (SMILES): Cn1c(=O)c2c(ccn2CC(=O)Nc2nc(-c3ccc(Cl)c(Cl)c3Cl)cs2)n(C)c1=O [Example 5, 2-(1,3-Dimethyl-2,4-dioxo-1,2,3,4-tetrahydro-5H-pyrrolo[3,2-d]pyrimidin-5-yl)-N-[4-(2,3,4-trichlorophenyl)-1,3-thiazol-2-yl]acetamide]
- inhibition at 1 µM: 55.3%
- inhibition at 10 µM: 82.3%

Structure (SMILES): Cn1c(=O)c2c(ccn2CC(=O)Nc2nc(-c3cc(F)c(OCC(C)(C)C)c(F)c3)cs2)n(C)c1=O [Example 8, N-{[4-(2,2-Dimethylpropoxy)-3,5-difluorophenyl]-1,3-thiazol-2-yl}-2-(1,3-dimethyl-2,4-dioxo-1,2,3,4-tetrahydro-5H-pyrrolo[3,2-d]pyrimidin-5-yl)acetamide]
- inhibition at 1 µM: 91.9%
- inhibition at 10 µM: 100%
- pIC50: > 7.30

Structure (SMILES): Cn1nc2c(c1CC(=O)Nc1nc(-c3ccc(C(F)(F)F)cc3F)cs1)c(=O)n(C)c(=O)n2C [Example 56, N-{4-[2-Fluoro-4-(trifluoromethyl)phenyl]-1,3-thiazol-2-yl}-2-(2,5,7-trimethyl-4,6-dioxo-4,5,6,7-tetrahydro-2H-pyrazolo[3,4-d]pyrimidin-3-yl)acetamide]
- inhibition at 1 µM: 96.2%
- inhibition at 10 µM: 98.2%
- pIC50: > 7.30

Structure (SMILES): Cn1nc2c(c1CC(=O)Nc1nc(-c3ccc(F)c(F)c3)cs1)c(=O)n(C)c(=O)n2C [Example 51, N-[4-(3,4-Difluorophenyl)-1,3-thiazol-2-yl]-2-(2,5,7-trimethyl-4,6-dioxo-4,5,6,7-tetrahydro-2H-pyrazolo[3,4-d]pyrimidin-3-yl)acetamide]
- inhibition at 1 µM: 57.5%
- inhibition at 10 µM: 79.7%

Structure (SMILES): Cn1c(=O)c2c(ccn2CC(=O)Nc2nc(-c3cc(F)c(OCC4CCC4)c(F)c3)cs2)n(C)c1=O [Example 18, 2-(1,3-Dimethyl-2,4-dioxo-1,2,3,4-tetrahydro-5H-pyrrolo[3,2-d]pyrimidin-5-yl)-N-{4-[4-(cyclobutylmethoxy)-3,5-difluorophenyl]-1,3-thiazol-2-yl}acetamide]
- inhibition at 1 µM: 38.4%
- inhibition at 10 µM: 38.7%
